Measured values from patent US20250195530A1, “POLQ INHIBITORS” (ASTRAZENECA AB, priority 2022, published 2025).

Tests used:
[1] = test system: DLD-1 cells; assay: Inhibition of proliferation, DLD-1 BRCA2 wt control (Cell Titre Glo 3D); type: cell-based; details: Homo sapiens, DLD-1, second proliferation column (c6); DLD-1 BRCA2 wt control; read-out: POLQ PD Prolif Lumin (converted)
Procedure, shortened: (§1)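 Read-out: CellTiter-Glo 3D luminescence, day 7 for wt DLD-1, day 12 for BRCA2−/−, about 8-9 population doublings each. Seeding 1,500 or 3,000 cells/mL respectively. Dose range 10 μM–0.51 nM, 3-fold, 10 points, with re-dosing on day 6. IC50 from curve fit.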

[2] = test system: DLD-1 BRCA2−/− cells; assay: Homologous recombination synthetic lethal inhibition of proliferation, DLD-1 BRCA2-/- (Cell Titre Glo 3D); type: cell-based; details: Homo sapiens, DLD-1, first proliferation column (c5); DLD-1 BRCA2-/-; read-out: POLQ PD Prolif Lumin (converted)
Procedure, shortened: as §1

| IC50 [1] | SMILES | IC50 [2] |
| --- | --- | --- |
| > 10 µM | Cc1ccnc(Cn2c(-c3ccc(NC(=O)NCCO)cc3Cl)nc3c(OC4(C)CC4)ncnc32)c1 [Example T132, 1-(3-chloro-4-(6-(1-methylcyclopropoxy)-9-((4-methylpyridin-2-yl)methyl)-9H-purin-8-yl)phenyl)-3-(2-hydroxyethyl)urea] | 2000 nM |
| > 10 µM | CNCCCOc1ccc(-c2nc3c(OC4(C)CC4)ncnc3n2Cc2cc(Cl)ccn2)c(Cl)c1 [Example T134, 3-(3-chloro-4-(9-((4-chloropyridin-2-yl)methyl)-6-(1-methylcyclopropoxy)-9H-purin-8-yl)phenoxy)-N-methylpropan-1-amine] | 126 nM |
| > 10 µM | CN(C)CCOc1ccc(-c2nc3c(OC4(C)CC4)ncnc3n2Cc2cc(Cl)ccn2)c(Cl)c1 [Example T135, 2-(3-chloro-4-(9-((4-chloropyridin-2-yl)methyl)-6-(1-methylcyclopropoxy)-9H-purin-8-yl)phenoxy)-N,N-dimethylethan-1-amine] | 50.1 nM |
| > 10 µM | Cc1ccnc(Cn2c(-c3ccc(CN(C)C)cc3Cl)nc3c(OC4(C)CC4)ncnc32)c1 [Example T136, 1-(3-chloro-4-(6-(1-methylcyclopropoxy)-9-((4-methylpyridin-2-yl)methyl)-9H-purin-8-yl)phenyl)-N,N-dimethylmethanamine] | 501 nM |
| > 10 µM | CNCCOc1ccc(-c2nc3c(OC4(C)CC4)ncnc3n2Cc2cc(C)ccn2)c(Cl)c1 [Example T137, 2-(3-chloro-4-(6-(1-methylcyclopropoxy)-9-((4-methylpyridin-2-yl)methyl)-9H-purin-8-yl)phenoxy)-N-methylethan-1-amine] | 200 nM |
| > 10 µM | Cc1cnc(Cn2c(-c3ccc(OC4CCNCC4)cc3Cl)nc3c(OC4(C)CC4)ncnc32)s1 [Example T138, 2-((8-(2-chloro-4-(piperidin-4-yloxy)phenyl)-6-(1-methylcyclopropoxy)-9H-purin-9-yl)methyl)-5-methylthiazole] | 501 nM |
| > 10 µM | Cc1cnc(Cn2c(-c3ccc(OC[C@H]4CCCN4)cc3Cl)nc3c(OC4(C)CC4)ncnc32)s1 [Example T139, (R)-2-((8-(2-chloro-4-(pyrrolidin-2-ylmethoxy)phenyl)-6-(1-methylcyclopropoxy)-9H-purin-9-yl)methyl)-5-methylthiazole] | 398 nM |
| > 10 µM | Cc1cnc(Cn2c(-c3ccc(O[C@H]4CCN(C)C4)cc3Cl)nc3c(OC4(C)CC4)ncnc32)s1 [Example T140, (S)-2-((8-(2-chloro-4-((1-methylpyrrolidin-3-yl)oxy)phenyl)-6-(1-methylcyclopropoxy)-9H-purin-9-yl)methyl)-5-methylthiazole] | 251 nM |
| > 10 µM | Cc1cnc(Cn2c(-c3cccc(OCCN4CC(O)C4)c3Cl)nc3c(OC4(C)CC4)ncnc32)s1 [Example T142, 1-(2-(2-chloro-3-(6-(1-methylcyclopropoxy)-9-((5-methylthiazol-2-yl)methyl)-9H-purin-8-yl)phenoxy)ethyl)azetidin-3-ol] | 1000 nM |
| > 10 µM | CC1(Oc2ncnc3c2nc(-c2ccc(OCCN4CCNCC4)cc2Cl)n3Cc2ncsc2Cl)CC1 [Example T145, 5-chloro-4-((8-(2-chloro-4-(2-(piperazin-1-yl)ethoxy)phenyl)-6-(1-methylcyclopropoxy)-9H-purin-9-yl)methyl)thiazole] | 2000 nM |
| > 10 µM | CC1(Oc2ncnc3c2nc(-c2ccc(OCCN4CCNCC4)cc2Cl)n3Cc2cnc(Cl)s2)CC1 [Example T146, 2-chloro-5-((8-(2-chloro-4-(2-(piperazin-1-yl)ethoxy)phenyl)-6-(1-methylcyclopropoxy)-9H-purin-9-yl)methyl)thiazole] | 1260 nM |
| > 7.94 µM | Cc1cnc(Cn2c(-c3ccc(OCCCN(C)C)cc3Cl)nc3c(OC4(C)CC4)ncnc32)s1 [Example T148, 3-(3-chloro-4-(6-(1-methylcyclopropoxy)-9-((5-methylthiazol-2-yl)methyl)-9H-purin-8-yl)phenoxy)-N,N-dimethylpropan-1-amine] | 316 nM |
